Source: patent publication EP2977452A2, “METHODS OF TREATMENT AND PREVENTION OF NEURODEGENERATIVE DISEASES AND DISORDERS” (THOMAS JEFFERSON UNIVERSITY, priority 2007, dated 2008)
“Also recorded” adds a separate entry of the source.

Experiments:
Format in all cases: in vivo
[1] = tested on: blood brain barrier (BBB); experiment: BBB leakage in brain of DM/HC pig model (IHC for pig immunoglobulin); conditions: DM/HC pigs
Protocol: (§1) Animal model: A diabetic/diabetic hypercholestrolemic pig model (DM/HC) was developed that mimics human-like atherosclerosis. Farm pigs weighing 25-30 kg and aged ∼4 months were made diabetic with a single intravenous injection of 125 mg/kg of streptozotocin (Sicor Pharmaceuticals, Irvine, CA). After stabilization for 1-2 weeks, the animals with elevated levels of plasma glucose (>150 mg/dl) were fed with atherogenic (high-fat) diet as shown in Table 1 (Animal Specialties, Quakertown, PA) to achieve a cholesterol level of approximately 250-800 mg/dl. Table 1. Diet for 2.0% cholesterol diet the components are:
(§2) At one month after stabilization of choleresterol at 250-800mg/dl, the animals were randomized into two experimental groups, DM/HC (hyperglycemia and hypercholesterolemia) group with no treatment and treatment group (10 mg/kg/day of SB-480848, also referred to as 1-(N-(2-(diethylamino)ethyl)-N-(4-(4-trifluoromethylphenyl)benzyl)-aminocarbonylmethyl)-2-(4-fluorobenzyl)thio-5,6-trimethylenepyrimidin-4-one). The animals were sacrificed at 6-month after the randomization. The animal protocol has been approved by the Institutional Animal Care and Use Committee of University of Pennsylvania.
(§3) Two diabetic/hypercholesterolemic groups were evaluated: 1. DM/HC group and 2. DM/HC animals receiving Lp-PLA2 inhibitors. The experiments included: the control group (DM/HC group - 17 pigs) and the experimental group (DM/HC animals receiving LP-PLA2 inhibitors - 20 pigs). In addition blood cholesterol levels were maintained between 300 and 800 mg/dl in experimental animals, this range having been determined to provide a better test model. Blood cholesterol levels were monitored in all animals on a bimonthly basis, as shown in Table 4 and adjustments were made to the fat content of the feed accordingly, as shown in Table 2. The cholesterol and lard percent were in the range of 0.5-2% and 10-25%, respectively, and all animals received feed that contained cholesterol and lard concentration within that range. Blood samples were obtained at baseline, 1 month, 3 months, and 6 months. Less than 1 ml/kg of blood were obtained each time. At the bimonthly blood cholesterol levels tests, levels of total cholesterol, LDL, HDL, VLDL and triglycerides, blood glucose, Lp-PLA2 and […] (PBMCs) were tested (see Table 4).
(§4) Daily dosing began on Day 29, at which time each test animal was given a daily dose of 10 mg/kg SB-480848 (given as bolus equivalent in dog food). Animals were NPO from midnight the night before. Animals were euthanized on Day 196 and tissues harvested immediately.
(§5) Brain tissue preparation. The entire brain was removed within one hour after animals were euthanized. The right hemisphere was fixed in 10% formalin for at least one week. […]

[2] = Body weight and behaviour observed during the study in DM/HC pig model; conditions: DM/HC pigs
Protocol: as §1, §2, §3
Domestic farm pigs, Yorkshire boars, ranging in weight between 25-35 kg were purchased from a local farm and placed in indoor housing under the care of a veterinarian. They were castrated 3-5 days in advance of the study start date. Test pigs were made diabetic by infusing one dose of streptozocin (125 mg/kg) IV in a period of 30 min. […] The blood glucose was measured using a glucometer every day before feeding for the first 14 days and then once a week. […]

Abeta-42 = Abeta-42 accumulation in brain of DM/HC pig model (IHC); conditions: DM/HC pigs
Protocol: as §1, §2, §3, §4, §5

glial cells = experiment: Glial cell (astrocyte) activation in brain of DM/HC pig model (GFAP IHC); conditions: DM/HC pigs treated with Lp-PLA2 inhibitor, vs non-treated
Protocol: as §1, with “are: […]” for “are:”
Two diabetic/hypercholesterolemic groups were evaluated: 1. […] In addition blood cholesterol levels were maintained between 300 and 800 mg/dl in experimental animals, this range having been determined to provide a better test model. Blood cholesterol levels were monitored in all animals on a bimonthly basis, as shown in Table 4 and adjustments were made to the fat content of the feed accordingly, as shown in Table 2. […]

[3] = 10 mg/kg/day SB-480848, n=6, vs DM/HC no treatment, 10 mg/kg/day
[4] = 10 mg/kg/day SB-480848, vs DM/HC no treatment
[5] = during the study period, compared to control non-treated animals

## CCN(CC)CCN(Cc1ccc(-c2ccc(C(F)(F)F)cc2)cc1)C(=O)Cn1c(SCc2ccc(F)cc2)nc(=O)c2c1CCC2 [Lp-PLA2 inhibitor, 1-(N-(2-(diethylamino)ethyl)-N-(4-(4-trifluoromethylphenyl)benzyl)-aminocarbonylmethyl)-2-(4-fluorobenzyl)thio-5,6-trimethylenepyrimidin-4-one]
[1]; [3]
  BBB leakage: prevents BBB leakage; also recorded: negligible
[1]; [4]
  Ig binding to neurons: no Ig binding to neurons
  Ig leakage from blood vessels: no Ig leakage from blood vessels
  dendrite collapse: no dendrite collapse
[2]; 10 mg/kg/day SB-480848, end of study, from a baseline of 26.9 kg, control animals 50.9 kg (baseline 30.3 kg)
  weight: 62.5 kg
[2]; [5]
  activity in the cage: increased activity in the cage
  response to feeding and handling: tended to respond more alertly to feeding and handling
  responsiveness to external stimuli: more responsive to external stimuli
Abeta-42; 10 mg/kg/day SB-480848, compared with non-treated animals
  sick neurons: rarely observed
Abeta-42; [3]
  neuronal Abeta-42 immunoreactivity: prevents Abeta-42 accumulation in neurons; also recorded: no neuronal Abeta-42 immunoreactivity
Abeta-42; [4]
  Abeta42 accumulation in vascular SMCs: prevented Abeta42 accumulation in vascular SMCs
Abeta-42; 10 mg/kg/day SB-480848, vs DM/HC no treatment, 10 mg/kg/day
  cerebrovascular amyloidosis (arterial Abeta-42 immunostaining): little or no arterial Abeta-42 immunostaining; also recorded: minimized cerebrovascular amyloidosis
Glial cells
  activation of glial cells: less activation of glial cells
